Activity calls are given as the source filed them. The rule behind the calls is not given here.
Tests used:
[1] = biological target: T1, Cytosolic phospholipase A2 (Homo sapiens, UniProt P47712); experiment: Inhibition of cPLA2-alpha by GLU micelle assay
T1 sequence (P47712 whole entry): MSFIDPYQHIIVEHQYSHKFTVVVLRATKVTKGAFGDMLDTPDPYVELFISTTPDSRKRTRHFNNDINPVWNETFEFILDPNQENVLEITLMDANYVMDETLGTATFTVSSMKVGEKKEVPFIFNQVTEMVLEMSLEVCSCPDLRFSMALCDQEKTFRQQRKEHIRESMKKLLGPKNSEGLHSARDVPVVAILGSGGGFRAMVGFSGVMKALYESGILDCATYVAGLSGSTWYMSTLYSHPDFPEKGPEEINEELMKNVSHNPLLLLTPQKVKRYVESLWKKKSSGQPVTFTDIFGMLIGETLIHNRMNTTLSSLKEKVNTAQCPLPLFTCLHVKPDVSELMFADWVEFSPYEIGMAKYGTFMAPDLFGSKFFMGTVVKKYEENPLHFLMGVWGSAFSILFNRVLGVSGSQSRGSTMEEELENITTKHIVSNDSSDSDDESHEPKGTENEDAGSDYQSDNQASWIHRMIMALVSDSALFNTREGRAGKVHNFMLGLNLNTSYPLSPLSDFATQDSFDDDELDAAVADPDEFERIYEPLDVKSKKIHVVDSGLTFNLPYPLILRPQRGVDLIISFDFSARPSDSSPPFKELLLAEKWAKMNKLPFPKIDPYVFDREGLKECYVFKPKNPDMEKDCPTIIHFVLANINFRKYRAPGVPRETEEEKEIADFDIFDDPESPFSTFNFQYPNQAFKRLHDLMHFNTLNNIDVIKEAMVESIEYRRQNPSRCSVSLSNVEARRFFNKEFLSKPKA

[2] = Inhibition of LTB4 production in MC9 cell line; type: functional, cell-based; details: Mus musculus
MC9 = experiment: Inhibition of PGF2-alpha production in MC9 cell line in presence of arachidonic acid; type: functional, cell-based; details: Mus musculus
[3] = Inhibition of ionophore-stimulated TXB2 production in rat whole blood; type: functional, tissue-based
[4] = Inhibition of PGF2-alpha production in MC9 cell line; type: functional, cell-based; details: Mus musculus

SMILES | IC50 [1] [µM] | also measured
CCn1c(=O)n(C/C=C/COc2ccc(C(=O)O)cc2)c(=O)n(C(c2ccccc2)c2ccccc2)c1=O | 1.6 | 
CCCCn1c(=O)n(C/C=C/COc2ccc(C(=O)O)cc2)c(=O)n(C(c2ccccc2)c2ccccc2)c1=O | 2.4 | 
O=C(O)c1ccc(OCCn2c(=O)n(-c3ccccc3)c(=O)n(C(c3ccccc3)c3ccccc3)c2=O)cc1 | > 50 | 
C=CCn1c(=O)n(C/C=C/COc2ccc(C(=O)O)cc2)c(=O)n(C(c2ccccc2)c2ccccc2)c1=O | 1.3 | 
O=C(O)c1ccc(OCC#CCn2c(=O)on(CC(c3ccccc3)c3ccccc3)c2=O)cc1 | 23 | 
O=C(O)c1ccc(OC/C=C/Cn2c(=O)on(CC(c3ccccc3)c3ccccc3)c2=O)cc1 | > 50 | 
CCCCn1c(=O)n(CCOc2ccc(C(=O)O)cc2)c(=O)n(C(c2ccccc2)c2ccccc2)c1=O | 5.6 | 
O=C(O)c1ccc(OCCn2c(=O)n(Cc3ccccc3)c(=O)n(CC(c3ccccc3)c3ccccc3)c2=O)cc1 | 30 | 
O=C(O)c1ccc(OCCCCn2c(=O)on(CC(c3ccccc3)c3ccccc3)c2=O)cc1 | > 50 | 
O=C(O)c1cccc(OCCn2c(=O)on(CC(c3ccccc3)c3ccccc3)c2=O)c1 | > 50 | 
O=C(O)c1ccc(OCCn2c(=O)on(C(c3ccccc3)c3ccccc3)c2=O)cc1 | > 50 | 
CCn1c(=O)n(CCOc2ccc(C(=O)O)cc2)c(=O)n(C(c2ccccc2)c2ccccc2)c1=O | 7.5 | 
O=C(O)c1ccc(OCCn2c(=O)n(Cc3ccccc3)c(=O)n(C(c3ccccc3)c3ccccc3)c2=O)cc1 | 3.5 | 
O=C(O)c1ccc(OCCn2c(=O)on(CC(c3ccccc3)c3ccccc3)c2=O)cc1O | 27 | 
O=C(O)c1ccc(OCCCn2c(=O)on(CC(c3ccccc3)c3ccccc3)c2=O)cc1 | 12.4 | 
O=C(O)c1ccc(OCCn2c(=O)on(CC(c3ccccc3)c3ccccc3)c2=O)cc1 | 6.7 | 
O=C(O)c1ccc(OCCn2c(=O)on(C(Cc3ccccc3)Cc3ccccc3)c2=O)cc1 | > 50 | 
C=CCn1c(=O)n(CCOc2ccc(C(=O)O)cc2)c(=O)n(C(c2ccccc2)c2ccccc2)c1=O | 5 | 
O=C(O)c1ccc(OC/C=C/Cn2c(=O)n(Cc3ccccc3)c(=O)n(C(c3ccccc3)c3ccccc3)c2=O)cc1 | 1.3 | IC50 [2]: 0.5 µM; Activity (MC9): inactive; IC50 [3]: 5.2 µM; IC50 [4]: 0.8 µM

Reference: ChEMBL document CHEMBL1148667, “1,2,4-Oxadiazolidin-3,5-diones and 1,3,5-triazin-2,4,6-triones as cytosolic phospholipase A2alpha inhibitors” (Bioorg Med Chem Lett, 2006)
